Assay results reported in the supplement of paper PMC6045584.
± gives the standard deviation of the averaged measurements.

How the values were obtained:
[1] = compound: Cn1ncnc1[C@H]1c2n[nH]c(=O)c3cc(F)cc(c23)N[C@@H]1c1ccc(F)cc1 [BMN-673]; assay: surviving fraction relative to DMSO-only wells; higher = less growth inhibition; details: exposure time: 5 days
Summary of the method: (§1)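 Continuous five-day exposure to inhibitors at 0.5, 1, 5, 10, 50, 100, 500 and 1000 nM started 24 hours after log-phase tumour cell lines were seeded at 250–500 cells per well in 384-well plates. Luminescence was read after 10 minutes at room temperature. Viability is given as surviving fraction, meaning CellTiter-Glo luminescence normalised to the median of DMSO-only wells.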

[2] = compound: C[C@H](CN(C)C)Oc1nc(Nc2cc3cccc(Cl)c3cn2)cnc1C#N; assay: as above; details: exposure time: 5 days
Summary of the method: as §1

Test System	surviving fraction ([1]; 0.5 nM)	surviving fraction ([1]; 1 nM)	surviving fraction ([1]; 5 nM)	surviving fraction ([1]; 10 nM)	surviving fraction ([1]; 50 nM)	surviving fraction ([1]; 100 nM)	surviving fraction ([1]; 500 nM)	surviving fraction ([1]; 1000 nM)	surviving fraction ([2]; 0.5 nM)	surviving fraction ([2]; 1 nM)	surviving fraction ([2]; 5 nM)	surviving fraction ([2]; 10 nM)	surviving fraction ([2]; 50 nM)	surviving fraction ([2]; 100 nM)	surviving fraction ([2]; 500 nM)	surviving fraction ([2]; 1000 nM)
H23 LUNG	1.07 ± 0.04	1.07 ± 0.056	1.06 ± 0.054	0.937 ± 0.014	0.779 ± 0.024	0.688 ± 0.055	0.507 ± 0.23	0.238 ± 0.02	1 ± 0.058	0.99 ± 0.033	1 ± 0.064	0.989 ± 0.024	1.06 ± 0.082	1.02 ± 0.038	1 ± 0.092	0.919 ± 0.079
SUM149 BREAST	0.857 ± 0.051	0.721 ± 0.068	0.301 ± 0.019	0.226 ± 0.023	0.176 ± 0.017	0.163 ± 0.014	0.149 ± 0.0045	0.145 ± 0.024	1.04 ± 0.091	1.02 ± 0.083	0.988 ± 0.086	1.07 ± 0.017	0.903 ± 0.07	0.836 ± 0.024	0.192 ± 0.0025	0.0843 ± 0.011
MFM223 BREAST	1.25 ± 0.069	1.2 ± 0.073	1.07 ± 0.25	0.9232 ± 0.0025	0.805 ± 0.015	0.755 ± 0.047	0.734 ± 0.027	0.713 ± 0.072	1.27 ± 0.17	1.09 ± 0.057	1.15 ± 0.14	1.09 ± 0.094	1.08 ± 0.093	1.14 ± 0.18	0.8 ± 0.048	0.526 ± 0.17
ASKA SYNOVIAL	0.846 ± 0.056	0.753 ± 0.041	0.625 ± 0.043	0.602 ± 0.024	0.54 ± 0.062	0.427 ± 0.036	0.342 ± 0.015	0.334 ± 0.016	1.05 ± 0.055	1.13 ± 0.083	1.11 ± 0.087	1.06 ± 0.082	0.994 ± 0.061	0.852 ± 0.041	0.432 ± 0.032	0.438 ± 0.0075
HSSYII SYNOVIAL	0.867 ± 0.022	0.819 ± 0.015	0.506 ± 0.026	0.34 ± 0.017	0.19 ± 0.0066	0.132 ± 0.011	0.0702 ± 0.0064	0.06017 ± 0.00029	0.9423 ± 0.0023	0.918 ± 0.0061	0.956 ± 0.042	0.94 ± 0.066	0.884 ± 0.039	0.74 ± 0.015	0.139 ± 0.0076	0.077 ± 0.0027
HT1080 SOFT TISSUE	1 ± 0.037	0.967 ± 0.042	0.73 ± 0.024	0.524 ± 0.02	0.375 ± 0.018	0.312 ± 0.0085	0.204 ± 0.0027	0.187 ± 0.014	1.04 ± 0.044	1.03 ± 0.011	1.04 ± 0.017	1.04 ± 0.023	1 ± 0.028	0.972 ± 0.041	0.707 ± 0.018	0.398 ± 0.012
CHLA90 AUTONOMIC GANGLIA	0.939 ± 0.01	0.982 ± 0.068	0.906 ± 0.051	0.897 ± 0.045	0.938 ± 0.086	0.906 ± 0.083	0.814 ± 0.04	0.714 ± 0.026	0.977 ± 0.064	0.961 ± 0.058	0.913 ± 0.041	0.912 ± 0.034	0.94 ± 0.048	0.904 ± 0.075	0.46 ± 0.084	0.236 ± 0.048
JIMT1 BREAST	0.928 ± 0.041	0.913 ± 0.025	0.848 ± 0.011	0.822 ± 0.011	0.71 ± 0.035	0.617 ± 0.063	0.474 ± 0.027	0.395 ± 0.033	0.979 ± 0.019	0.966 ± 0.042	1.03 ± 0.01	0.988 ± 0.043	0.916 ± 0.053	0.467 ± 0.025	0.0688 ± 0.0064	0.0615 ± 0.0039
RDES SOFT TISSUE	1.16 ± 0.1	1.38 ± 0.055	1.07 ± 0.022	1.09 ± 0.093	0.472 ± 0.077	0.137 ± 0.011	0.035 ± 0.001	0.0337 ± 0.0025	1.28 ± 0.031	1.37 ± 0.031	1.3 ± 0.14	1.2 ± 0.12	1.17 ± 0.086	1.32 ± 0.041	1.33 ± 0.1	1.38 ± 0.13
NOS1 BONE	1.1 ± 0.058	0.953 ± 0.093	0.683 ± 0.026	0.66 ± 0.066	0.633 ± 0.085	0.564 ± 0.051	0.551 ± 0.042	0.552 ± 0.026	1.09 ± 0.18	1.05 ± 0.082	0.999 ± 0.066	1.02 ± 0.076	0.875 ± 0.046	0.709 ± 0.12	0.252 ± 0.0046	0.253 ± 0.0087
